Assay results taken from the supplement of paper PMC10331698.
± gives the standard deviation of the averaged measurements.

What was measured:
Test in all cases: level (log10 ratio to DMSO vehicle control); higher = higher biomarker level / cell amount than vehicle control
Settings in all cases: in DMSO
[1] = compound: O=C(O)C(F)(F)OC(F)(F)C(F)(F)OC(F)(F)C(=O)O [Perfluoro-3,6-dioxaoctane-1,8-dioic acid]
Experimental: (§1)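 BioMAP Diversity Plus panel of 12 human primary cell co-culture systems (3C, 4H, LPS, SAg, BT, BF4T, BE3C, CASM3C, HDF3CGF, KF3CT, MyoF, Mphg). Compounds were added 1 h before stimulation and left for 24 h (MyoF 48 h; BT 72 h for soluble read-outs or 6 d for IgG). Biomarkers were read by ELISA, cytotoxicity by SRB, PBMC viability and proliferation by Alamar Blue. Each well value was divided by the mean of 8 DMSO control wells on the same plate and log10 transformed; duplicate blinded samples were tested at 4 concentrations.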

[2] = compound: FC(F)C(F)(F)COCC1CO1 [((2,2,3,3-Tetrafluoropropoxy)methyl)oxirane]
Experimental: as §1

[3] = compound: O=C(O)C(F)(F)C(F)(F)C(F)(F)C(F)(F)F [Perfluoropentanoic acid]
Experimental: as §1

[4] = compound: O=C(O)C(F)(F)OC(F)(F)C(F)(F)OC(F)(F)F [Perfluoro-3,6-dioxaheptanoic acid]
Experimental: as §1

[5] = compound: FC(F)(F)C(F)(F)C(F)(F)C(F)(F)C(F)(F)C(F)(F)C(F)(F)C(F)(F)CCS [2-(Perfluorooctyl)ethanthiol]
Experimental: as §1

[6] = compound: O=C(O)C(F)(F)C(F)(F)OC(F)(F)F [Perfluoro-3-methoxypropanoic acid]
Experimental: as §1

[7] = compound: NC(=O)C(F)(F)C(F)(F)C(F)(F)F [Heptafluorobutyramide]
Experimental: as §1

Row | Test System | level (log10) ([1]; 6700 nM) | level (log10) ([1]; 20000 nM) | level (log10) ([1]; 60000 nM) | level (log10) ([2]; 6700 nM) | level (log10) ([2]; 20000 nM) | level (log10) ([2]; 60000 nM) | level (log10) ([3]; 6700 nM) | level (log10) ([3]; 20000 nM) | level (log10) ([3]; 60000 nM) | level (log10) ([4]; 6700 nM) | level (log10) ([4]; 20000 nM) | level (log10) ([4]; 60000 nM) | level (log10) ([5]; 6700 nM) | level (log10) ([5]; 20000 nM) | level (log10) ([6]; 6700 nM) | level (log10) ([6]; 20000 nM) | level (log10) ([6]; 60000 nM) | level (log10) ([7]; 6700 nM) | level (log10) ([7]; 20000 nM) | level (log10) ([7]; 60000 nM)
1 | BF4T:CD106/VCAM-1 | -0.0385 ± 0.022 | -0.042 ± 0.0071 | 0.006 ± 0.071 | 0.003 ± 0.0028 | -0.003 ± 0.0057 | 0.0185 ± 0.043 | -0.0425 ± 0.036 | -0.046 ± 0.016 | 0.018 ± 0.04 | -0.035 ± 0.055 | -0.0205 ± 0.032 | -0.01 ± 0.017 | -0.003 ± 0.051 | -0.0605 ± 0.0078 | -0.025 ± 0.031 | -0.029 ± 0.011 | 0.022 ± 0.014 | -0.006 ± 0.0014 | -0.013 ± 0.0085 | 0.021 ± 0.069
2 | BF4T:CXCL8/IL-8 | -0.011 ± 0.023 | -0.0305 ± 0.0064 | -0.0025 ± 0.037 | 0.0165 ± 0.013 | 0.003 ± 0.0042 | 0.0255 ± 0.021 | -0.0345 ± 0.013 | -0.0295 ± 0.013 | -0.0105 ± 0.035 | 0.044 ± 0.034 | 0.0475 ± 0.015 | 0.073 ± 0.045 | 0.0625 ± 0.037 | 0.0505 ± 0.05 | -0.004 ± 0.025 | -0.0225 ± 0.042 | 0.001 ± 0.068 | 0.032 ± 0.061 | 0.024 ± 0.057 | 0.0155 ± 0.012
3 | BF4T:IL-1alpha | -0.004 ± 0.0099 | 0.0085 ± 0.0035 | 0.006 ± 0.021 | -0.0025 ± 0.00071 | -0.009 ± 0.0099 | 0.021 ± 0.03 | -0.016 ± 0.0085 | -0.005 ± 0.0071 | 0.0155 ± 0.046 | -0.0225 ± 0.035 | -0.021 ± 0.024 | -0.0105 ± 0.018 | -0.036 ± 0.018 | -0.023 ± 0.017 | -0.0055 ± 0.03 | -0.021 ± 0.0042 | 0.004 ± 0.045 | 0.005 ± 0.02 | -0.0045 ± 0.012 | 0.016 ± 0.0071
4 | BF4T:Keratin 8/18 | -0.0075 ± 0.022 | -0.008 ± 0.0014 | 0.0025 ± 0.019 | 0.0005 ± 0.005 | -0.008 ± 0.014 | -0.0025 ± 0.042 | 0.0055 ± 0.0064 | -0.002 ± 0.0085 | 0.0055 ± 0.03 | -0.025 ± 0.023 | -0.001 ± 0.014 | -0.0095 ± 0.018 | -0.0415 ± 0.0064 | -0.0615 ± 0.03 | -0.002 ± 0.031 | -0.003 ± 0.0085 | 0.016 ± 0.011 | -0.0015 ± 0.03 | 0.0065 ± 0.026 | 0.0055 ± 0.057
5 | BF4T:MMP-1 | 0.0075 ± 0.0064 | 0.007 ± 0.027 | 0.0185 ± 0.032 | 0.016 ± 0.0085 | 0.007 ± 0.02 | 0.03 ± 0.021 | 0 ± 0.014 | -0.005 ± 0.0057 | 0.0085 ± 0.0092 | -0.0125 ± 0.025 | -0.004 ± 0.028 | -0.001 ± 0.013 | 0.003 ± 0.0085 | 0.01 ± 0.0099 | 0.0025 ± 0.0021 | 0.008 ± 0.0042 | 0.0205 ± 0.023 | 0.0065 ± 0.025 | 0.003 ± 0.031 | 0.003 ± 0.0071
6 | BF4T:MMP-3 | -0.001 ± 0.0028 | -0.004 ± 0.0028 | 0.031 ± 0.025 | 0.0015 ± 0.00071 | -0.0115 ± 0.026 | 0.0205 ± 0.059 | -0.015 ± 0.011 | -0.0145 ± 0.0092 | -0.0045 ± 0.04 | -0.0065 ± 0.029 | -0.0075 ± 0.025 | 0.0065 ± 0.0078 | -0.0515 ± 0.0035 | -0.0285 ± 0.015 | -0.001 ± 0.024 | 0.0105 ± 0.0035 | 0.043 ± 0.016 | 0.0075 ± 0.0021 | -0.005 ± 0.02 | 0.0065 ± 0.012
7 | BF4T:MMP-9 | -0.021 ± 0.0057 | -0.0135 ± 0.005 | 0.02 ± 0.017 | 0.0055 ± 0.005 | -0.01 ± 0.0042 | 0.0065 ± 0.013 | -0.0115 ± 0.0064 | -0.0115 ± 0.019 | -0.0005 ± 0.035 | -0.028 ± 0.059 | -0.028 ± 0.031 | -0.0155 ± 0.022 | -0.047 ± 0.0099 | -0.057 ± 0.013 | -0.002 ± 0.0028 | -0.0125 ± 0.011 | 0.032 ± 0.013 | 0.014 ± 0.017 | 0.0035 ± 0.039 | 0.011 ± 0.04
8 | BF4T:PAI-I | 0.0085 ± 0.013 | 0.007 ± 0.0099 | 0.0095 ± 0.012 | -0.0075 ± 0.00071 | -0.011 ± 0.0028 | 0.0105 ± 0.026 | -0.003 ± 0.0014 | -0.005 ± 0.0028 | 0.007 ± 0.011 | -0.0215 ± 0.019 | -0.018 ± 0.033 | -0.002 ± 0.011 | -0.0175 ± 0.0064 | -0.0255 ± 0.005 | 0.0015 ± 0.0064 | 0.0105 ± 0.0092 | 0.015 ± 0.017 | -0.0025 ± 0.0021 | -0.014 ± 0.016 | 0.005 ± 0.027
9 | BF4T:SRB | -0.0115 ± 0.00071 | -0.014 ± 0.0014 | 0.003 ± 0.018 | -0.0075 ± 0.0035 | -0.006 ± 0.0057 | 0.002 ± 0.017 | -0.011 ± 0.0085 | -0.008 ± 0.0071 | 0.001 ± 0.0099 | -0.007 ± 0.0057 | -0.0035 ± 0.0021 | -0.003 ± 0.0028 | -0.01 ± 0.013 | -0.016 ± 0.0014 | -0.0145 ± 0.0035 | -0.0085 ± 0.0021 | 0.0025 ± 0.022 | -0.01 ± 0.0085 | -0.0075 ± 0.00071 | -0.005 ± 0.0099
10 | BF4T:tPA | -0.003 ± 0.0028 | -0.024 ± 0.018 | 0.0155 ± 0.059 | -0.009 ± 0.018 | -0.001 ± 0.033 | 0.016 ± 0.064 | -0.0295 ± 0.005 | -0.0215 ± 0.029 | -0.009 ± 0.061 | -0.0365 ± 0.05 | -0.0115 ± 0.063 | -0.041 ± 0.068 | 0.006 ± 0.034 | -0.0195 ± 0.022 | 0.0015 ± 0.037 | 0.0035 ± 0.018 | 0.019 ± 0.04 | -0.0065 ± 0.013 | 0.0015 ± 0.005 | 0.0135 ± 0.018
11 | BF4T:uPA | -0.007 ± 0.013 | -0.015 ± 0.0028 | 0.0035 ± 0.03 | -0.003 ± 0.0028 | -0.0005 ± 0.013 | 0.0135 ± 0.036 | -0.0315 ± 0.029 | -0.031 ± 0.023 | -0.0175 ± 0.033 | -0.04 ± 0.027 | -0.011 ± 0.011 | 0.0005 ± 0.025 | -0.031 ± 0.011 | -0.0285 ± 0.039 | -0.009 ± 0.021 | -0.0015 ± 0.012 | 0.0155 ± 0.042 | -0.0045 ± 0.03 | -0.006 ± 0.013 | -0.006 ± 0.014
12 | BT:B cell Proliferation | 0.0095 ± 0.016 | -0.009 ± 0.023 | 0.0035 ± 0.0035 | -0.021 ± 0.02 | -0.014 ± 0.0042 | 0.0105 ± 0.0092 | 0.009 ± 0.0057 | 0.0215 ± 0.06 | 0.0275 ± 0.012 | 0.015 ± 0.0028 | 0.031 ± 0.048 | 0.0535 ± 0.042 | -0.007 ± 0.0057 | 0.038 ± 0.0042 | -0.022 ± 0.023 | 0.0015 ± 0.022 | 0.0135 ± 0.005 | 0.0055 ± 0.018 | -0.02 ± 0.025 | -0.003 ± 0.03
13 | BT:PBMC Cytotoxicity | -0.018 ± 0.057 | -0.0495 ± 0.0064 | -0.0125 ± 0.012 | 0.0145 ± 0.0021 | -0.011 ± 0.0085 | -0.0135 ± 0.005 | 0.0075 ± 0.035 | -0.0055 ± 0.0078 | 0.0255 ± 0.013 | -0.011 ± 0.0099 | 0 ± 0.017 | 0.0015 ± 0.071 | -0.0395 ± 0.012 | 0.02 ± 0.0028 | -0.0195 ± 0.061 | -0.0215 ± 0.019 | -0.0005 ± 0.029 | 0.014 ± 0.0099 | 0.0025 ± 0.025 | 0.0105 ± 0.013
14 | BT:Secreted IgG | 0.032 ± 0.025 | 0.0095 ± 0.005 | -0.0365 ± 0.036 | 0.0295 ± 0.047 | -0.003 ± 0.071 | -0.0065 ± 0.098 | -0.0065 ± 0.016 | 0.0145 ± 0.0035 | -0.009 ± 0.059 | 0.003 ± 0.016 | -0.016 ± 0.018 | -0.018 ± 0.0057 | 0.02 ± 0.0071 | 0.016 ± 0.0014 | -0.0085 ± 0.0021 | 0.01 ± 0.018 | 0.0155 ± 0.0035 | 0.034 ± 0.0085 | -0.005 ± 0.031 | 0.0285 ± 0.025
